Patent US5294611A, “Angiotensin II receptor blocking 2,3,6 substituted quinazolinones” (American Cyanamid Company, priority 1993, dated 1994)
Read-outs that look alike come from different tables or passages of the source.

System: Angiotensin II (AII) vasopressor response
Experiment: AII Challenge: antagonism of angiotensin II vasopressor response in conscious spontaneously hypertensive rats
Assay type: in vivo, rat (male okamoto-Aoki SHR)
Conditions: for inhibition in vivo at 3 mg/kg / inhibition in vivo at 5 mg/kg: Rattus norvegicus, read-out: Inhibition; for inhibition in vivo at 3 mg/kg: iv; for inhibition in vivo at 3 mg/kg / inhibition in vivo at 5 mg/kg / Average Change: SHR n=2; for inhibition in vivo at 5 mg/kg: po; for Change: single SHR
Outline: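 Read-out is the systolic pressure increase (mmHg) to i.v. angiotensin II, 0.05 and 0.1 ug/kg, compared pre- and post-dose in restrained, conscious spontaneously hypertensive male rats. Compounds administered orally, i.p. or i.v.; arterial cannula inserted under local anaesthesia.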

[1] = 3 mg/kg I.V., AII 0.05 mcg/kg IV, 240 min post dose
[2] = 3 mg/kg I.V., AII 0.1 mcg/kg IV, 300 min post dose
[3] = 5 mg/kg P.O., AII 0.1 mcg/kg IV, 300 min post dose

`CCCCc1nc2ccc([C@H]3[C@@H]4C(=O)OC[C@@H]4ON3C)cc2c(=O)n1Cc1ccc(-c2ccccc2-c2nnn[nH]2)cc1` (relative stereo) [Example 53] gave an inhibition in vivo at 3 mg/kg (0.5 h, 3 mg/kg I.V., AII 0.05 mcg/kg IV, 30 min post dose) of 74%, an inhibition in vivo at 3 mg/kg (0.5 h, 3 mg/kg I.V., AII 0.1 mcg/kg IV, 30 min post dose) of 81% and an inhibition in vivo at 3 mg/kg (1 h, 3 mg/kg I.V., AII 0.05 mcg/kg IV, 60 min post dose) of 99%. It also gave an inhibition in vivo at 3 mg/kg (1 h, 3 mg/kg I.V., AII 0.1 mcg/kg IV, 60 min post dose) of 95%, an inhibition in vivo at 3 mg/kg (2 h, 3 mg/kg I.V., AII 0.05 mcg/kg IV, 120 min post dose) of 42% and an inhibition in vivo at 3 mg/kg (2 h, 3 mg/kg I.V., AII 0.1 mcg/kg IV, 120 min post dose) of 64%. It also gave an inhibition in vivo at 3 mg/kg (3 h, 3 mg/kg I.V., AII 0.05 mcg/kg IV, 180 min post dose) of 77%, an inhibition in vivo at 3 mg/kg (3 h, 3 mg/kg I.V., AII 0.1 mcg/kg IV, 180 min post dose) of 64% and an inhibition in vivo at 3 mg/kg (4 h, 3 mg/kg I.V., AII 0.05 mcg/kg IV, 240 min post dose) of 36%. The inhibition in vivo at 3 mg/kg (4 h, 3 mg/kg I.V., AII 0.1 mcg/kg IV, 240 min post dose) was 44%, the inhibition in vivo at 3 mg/kg (5 h, 3 mg/kg I.V., AII 0.05 mcg/kg IV, 300 min post dose) was 49% and the inhibition in vivo at 3 mg/kg (5 h, 3 mg/kg I.V., AII 0.1 mcg/kg IV, 300 min post dose) was 39%. It also gave an inhibition in vivo at 3 mg/kg ([…], 3 mg/kg I.V., AII 0.05 mcg/kg IV, 90 min post dose) of 68%, an inhibition in vivo at 3 mg/kg ([…], 3 mg/kg I.V., AII 0.1 mcg/kg IV, 90 min post dose) of 66% and an inhibition in vivo at 5 mg/kg (0.5 h, 5 mg/kg P.O., AII 0.05 mcg/kg IV, 30 min post dose) of 75%. It also gave an inhibition in vivo at 5 mg/kg (0.5 h, 5 mg/kg P.O., AII 0.1 mcg/kg IV, 30 min post dose) of 59%, an inhibition in vivo at 5 mg/kg (1 h, 5 mg/kg P.O., AII 0.05 mcg/kg IV, 60 min post dose) of 81% and an inhibition in vivo at 5 mg/kg (1 h, 5 mg/kg P.O., AII 0.1 mcg/kg IV, 60 min post dose) of 53%. For the same compound, the inhibition in vivo at 5 mg/kg (2 h, 5 mg/kg P.O., AII 0.05 mcg/kg IV, 120 min post dose) was 98%, the inhibition in vivo at 5 mg/kg (2 h, 5 mg/kg P.O., AII 0.1 mcg/kg IV, 120 min post dose) was 74% and the inhibition in vivo at 5 mg/kg (3 h, 5 mg/kg P.O., AII 0.05 mcg/kg IV, 180 min post dose) was 96%. The inhibition in vivo at 5 mg/kg (3 h, 5 mg/kg P.O., AII 0.1 mcg/kg IV, 180 min post dose) was 79%, the inhibition in vivo at 5 mg/kg (4 h, 5 mg/kg P.O., AII 0.05 mcg/kg IV, 240 min post dose) was 69% and the inhibition in vivo at 5 mg/kg (4 h, 5 mg/kg P.O., AII 0.1 mcg/kg IV, 240 min post dose) was 71%. The inhibition in vivo at 5 mg/kg (5 h, 5 mg/kg P.O., AII 0.05 mcg/kg IV, 300 min post dose) was 84%, the inhibition in vivo at 5 mg/kg (5 h, 5 mg/kg P.O., AII 0.1 mcg/kg IV, 300 min post dose) was 53% and the inhibition in vivo at 5 mg/kg ([…], 5 mg/kg P.O., AII 0.05 mcg/kg IV, 90 min post dose) was 88%. For the same compound, the inhibition in vivo at 5 mg/kg ([…], 5 mg/kg P.O., AII 0.1 mcg/kg IV, 90 min post dose) was 76%, the “Average Change” value (3 mg/kg I.V., AII 0.05 mcg/kg IV, 30 min post dose) was 10 mmHg and the “Average Change” value (3 mg/kg I.V., AII 0.05 mcg/kg IV, 60 min post dose) was 0.5 mmHg. The “Average Change” value (3 mg/kg I.V., AII 0.05 mcg/kg IV, 90 min post dose) was 12.5 mmHg, the “Average Change” value (3 mg/kg I.V., AII 0.05 mcg/kg IV, 120 min post dose) was 22.5 mmHg and the “Average Change” value (3 mg/kg I.V., AII 0.05 mcg/kg IV, 180 min post dose) was 9 mmHg. The “Average Change” value [1] was 25 mmHg, the “Average Change” value (3 mg/kg I.V., AII 0.1 mcg/kg IV, 30 min post dose) was 9.5 mmHg and the “Average Change” value (3 mg/kg I.V., AII 0.1 mcg/kg IV, 60 min post dose) was 2.5 mmHg. The “Average Change” value (3 mg/kg I.V., AII 0.1 mcg/kg IV, 90 min post dose) was 16.5 mmHg, the “Average Change” value (3 mg/kg I.V., AII 0.1 mcg/kg IV, 120 min post dose) was 17.5 mmHg and the “Average Change” value (3 mg/kg I.V., AII 0.1 mcg/kg IV, 180 min post dose) was 17.5 mmHg. The “Average Change” value (3 mg/kg I.V., AII 0.1 mcg/kg IV, 240 min post dose) was 27.5 mmHg, the “Average Change” value [2] was 30 mmHg and the “Average Change” value (5 mg/kg P.O., AII 0.05 mcg/kg IV, 30 min post dose) was 10 mmHg. The “Average Change” value (5 mg/kg P.O., AII 0.05 mcg/kg IV, 60 min post dose) was 7.5 mmHg, the “Average Change” value (5 mg/kg P.O., AII 0.05 mcg/kg IV, 90 min post dose) was 5 mmHg and the “Average Change” value (5 mg/kg P.O., AII 0.05 mcg/kg IV, 120 min post dose) was 1 mmHg. The “Average Change” value (5 mg/kg P.O., AII 0.05 mcg/kg IV, 180 min post dose) was 1.5 mmHg, the “Average Change” value (5 mg/kg P.O., AII 0.05 mcg/kg IV, 240 min post dose) was 12.5 mmHg and the “Average Change” value (5 mg/kg P.O., AII 0.05 mcg/kg IV, 300 min post dose) was 6.5 mmHg. For the same compound, the “Average Change” value (5 mg/kg P.O., AII 0.1 mcg/kg IV, 30 min post dose) was 17.5 mmHg, the “Average Change” value (5 mg/kg P.O., AII 0.1 mcg/kg IV, 60 min post dose) was 20 mmHg and the “Average Change” value (5 mg/kg P.O., AII 0.1 mcg/kg IV, 90 min post dose) was 10 mmHg. For the same compound, the “Average Change” value (5 mg/kg P.O., AII 0.1 mcg/kg IV, 120 min post dose) was 11 mmHg, the “Average Change” value (5 mg/kg P.O., AII 0.1 mcg/kg IV, 180 min post dose) was 9 mmHg and the “Average Change” value (5 mg/kg P.O., AII 0.1 mcg/kg IV, 240 min post dose) was 12.5 mmHg. The “Average Change” value [3] was 20 mmHg, the Change [1] was 25 mmHg and the Change (3 mg/kg I.V., AII 0.05 mcg/kg IV, 300 min post dose) was 20 mmHg. For the same compound, the Change [2] was 30 mmHg and the Change [3] was 20 mmHg.
